# PMC5688144, “Assay interference and off-target liabilities of reported histone acetyltransferase inhibitors” (Nature Communications, 2017)
# Entries after “also recorded” stand apart in the source; their conditions may differ.
# Legend:
# [1] = test system: caspase 3/7 activity in HEK293T and MCF7 cells; assay: Live-cell caspase 3/7 activity; assay type: cell-based; details: 24 h after compound addition
# Procedure: (§1) For cell growth analyses, cells were seeded in 96-well plates, treated with compounds for the indicated times, and monitored over time in a live cell Incucyte™ ZOOM imager (Essen Biosciences). To label apoptotic and dead cells, caspase 3/7 activatable DEVD recognition motif NucView™ 488 DNA intercalating dye (1:1000 dilution, Essen Biosciences) and SYTOX™ green nucleic acid stain (1:1000 dilution, Invitrogen) were used respectively, following manufacturer instructions.
# HEK293T and MCF7 cells [2] = assay: Membrane permeability (SYTOX green uptake); assay type: cell-based; details: for membrane permeability: Sytox green dead-cell dye uptake
# Procedure: as §1
# human La antigen = target: T1, human La antigen (Homo sapiens, UniProt P05455, T302N); assay: ALARM NMR; assay type: binding; details: 400 μM compound
# T1 construct: amino acids 100–324 of the human La antigen (plus T302N mutation); 6xHis (N); 6xHis (C); host or cells: Escherichia coli Rosetta cells
# T1 sequence (P05455 100-324 T302N): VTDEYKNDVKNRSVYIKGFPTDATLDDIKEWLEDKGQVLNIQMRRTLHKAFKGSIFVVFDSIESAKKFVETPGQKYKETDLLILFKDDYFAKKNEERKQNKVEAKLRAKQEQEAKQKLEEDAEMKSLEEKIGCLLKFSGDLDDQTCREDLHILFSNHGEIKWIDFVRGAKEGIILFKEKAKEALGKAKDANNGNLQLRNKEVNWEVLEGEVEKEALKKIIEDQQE
# Source text: The gene encoding amino acids 100–324 of the human La antigen (plus T302N mutation) was cloned into pET28b + vector (Novagen) with both an N- and C-terminal 6xHis tag (addgene.org, plasmid ID 90209). The sequence identity of the ALARM NMR plasmid construct was verified by Sanger sequencing of the transgene region and next-generation sequencing of the whole plasmid.
# Plasmid was transformed into Escherichia coli Rosetta cells (Novagen) and cultured in M9 minimal media. The La antigen was labeled by adding ^13C-labeled amino acid precursors ([3-^13C]-α-ketobutyrate and [3,3′-^13C]-α-ketoisovalerate sodium salts; Cambridge Isotope Laboratories; 250 mg L^−1 final concentrations) to culture medium 30 min before induction with IPTG (1 mM final concentration). Bacteria were collected after incubation at 25 °C for 8 h and washed with ice-cold phosphate-buffered saline (PBS). Washed cells were lysed by French press in ice-cold lysis buffer (50 mM Tris, pH 7.6, 300 mM NaCl, 10% glycerol (v/v), 5 mM β-mercaptoethanol (BME), 5 mM imidazole, 2 mM MgCl2, benzonase, and protease inhibitor cocktail), followed by an additional brief sonication step (3 × 15 s pulse sequence) on ice. This lysed solution was centrifuged (30,000×g for 30 min, two cycles) to remove cellular debris, then loaded onto a pre-washed Ni-NTA bead column (Qiagen) kept at 4 °C and washed with buffer (50 mM Tris, pH 7.6, 300 mM NaCl, 10% glycerol (v/v), 5 mM BME, 5 mM imidazole). The La antigen was eluted with an elution buffer (50 mM Tris, pH 7.6, 300 mM NaCl, 10% glycerol (v/v), 5 mM BME, imidazole gradient ranging from 5 mM to 0.5 M). […] Aliquots were flash-frozen in liquid N2 and stored at −80 °C until further use. Before use, aliquots of ~150 μM protein were incubated in the presence of 20 mM DTT at 37 °C for 1 h, then dialyzed (25 mM sodium phosphate buffer, pH 7.0 (no DTT)) in 16 h cycles at 4 °C with constant nitrogen bubbling and with gentle stirring, for three total buffer cycles.
# For standard testing conditions, the [^1H-^13C]-HMQC spectra were acquired in 25 mM sodium phosphate buffer, pH 7.0, 10% D2O (v/v; CIL) ± 400 μM test compounds delivered from the aforementioned stock solutions, and ± 20 mM non-deuterated DTT. Final concentration of DMSO was 4.0% (v/v). Reaction solutions were mixed, then centrifuged for 5 min (1000×g) in non-binding 384-well microplates at RT, then incubated at 37 °C for 1 h and then 30 °C for 15 h before obtaining spectra. Samples were checked for evidence of gross precipitation. Data were recorded at 298 K on a Bruker UltraShield 700 MHz NMR spectrometer equipped with a Bruker 1.7 mm TCI Cryoprobe and Bruker SampleJet autosampler. Samples were tested at 50 μM protein concentrations using 16 scans, 2048 complex points in F2, and 80 points in F1 using standard protein [^1H-^13C]-HMQC and water suppression pulse sequences.
# Data were analyzed in TopSpin™ 3.5 (Bruker). Reactions were normalized to equivalent DMSO controls. Non-reactive compounds were identified by the absence of chemical shifts or changes in peak intensities (^13C-methyl) ± 20 mM DTT.
# AmpC β-lactamase = target: T2, AmpC β-lactamase (Escherichia coli, UniProt P00811); assay: biochemical; parameters: species or system E. coli; details: 10 μM compound; for AmpC aggregation counter-screen: ± 0.01% Triton X-100
# T2 construct: Recombinant E. coli AmpC (amino acids 20–377); purchased MyBioSource.com
# Procedure: Selected compounds were assessed for aggregation using a modified AmpC β-lactamase counter-screen[24],[32],[64]. Recombinant E. coli AmpC (amino acids 20–377) was obtained from MyBioSource.com. Testing was performed in ALARM NMR buffer (25 mM sodium phosphate, pH 7.0) in flat-bottom UV-transparent 96-well microplates in 150 μL reaction volumes. Compounds were tested in triplicate at 10 μM final concentrations in either the presence or absence of freshly-prepared 0.01% Triton X-100 (v/v). Final concentration of DMSO was 2.0% (v/v). Compounds were incubated with ~5 nM AmpC in 147 μL reaction buffer for 5 min at RT, followed by the addition of 3 μL of nitrocefin substrate (100 μM final concentration). Reaction solutions were gently mixed by pipetting up and down three times using a multichannel pipette. […] Percent activity was normalized to DMSO-only controls. Fluconazole and lidocaine were included as negative aggregation control compounds. Rottlerin was included as a positive aggregation control compound. Aggregators were defined as compounds with significant detergent-dependent changes in AmpC activity (t-test, adjusted P-value <0.05; mean differences greater than 30%). Activators were defined as compounds that increased AmpC enzymatic activity.
# Absorbance spectra = assay type: physicochemical; details: 25 mM sodium phosphate, pH 7.0
# Procedure: Selected test compounds were assessed for absorption between 300 and 750 nm. Most compound absorption spectra were obtained at 100, 50, and 10 μM final compound concentrations in ALARM NMR buffer (25 mM sodium phosphate, pH 7.0). Final concentration of DMSO was constant at 2.0% (v/v). Compounds were allowed to incubate at RT in buffer for 10 min in UV-transparent polystyrene 384-well plates. Absorbance spectra were then obtained on a SpectraMax M3 or BMG Labtech CLARIOstar microplate reader at 25 °C. Significant absorbance was defined as molar absorptivity constants greater than 2000 M^−1 cm^−1 at wavelengths greater than 300 nm.
# [3] = Autofluorescence counter-screen; assay type: physicochemical; details: autofluorescence at eight fluorophore settings; 32 nM-100 μM compound
# Procedure: Selected test compounds were assessed for autofluorescence using an adaption of published procedures. […] Final concentration of DMSO was constant at 1.0% (v/v). Compounds and fluorophore standards were transferred as 10 mM DMSO stock solutions to 384-well black polystyrene microplates via Echo 550 dispenser. The plate arrangement was purposefully designed to minimize optical crosstalk by fluorophore standards. All measurements were performed in ALARM NMR buffer (25 mM sodium phosphate, pH 7.0) at 25 °C. Aliquots of 20 μL buffer were dispensed into microplate wells via ThermoFisher Multidrop dispenser. Compounds were shaken for 1 min on a plate shaker, centrifuged briefly for 1 min at 1000×g, then allowed to incubate at RT in buffer for 10 min before measuring fluorescence intensity on a SpectraMax M3 plate reader under reduced lighting. […] Bandwidth filters were set to default mode. Fluorescence intensity was measured for each test compound using each of the eight fluorophore standard settings. Fluorophores present on each plate were then used to construct normalized fluorescence dose-responses (“fluorophore-equivalent concentrations”, FEC). Fluorescence intensity for each test compound was converted to the appropriate FEC.
# [4] = Fluorescence quenching counter-screen; assay type: physicochemical; details: 10 μM fluorophore; 32 nM-100 μM compound
# Procedure: Selected test compounds were assessed for fluorescence quenching using adaptions of previously published procedures[9],[24]. Briefly, test compounds and individual fluorophore standards were incubated together. The fluorescence intensity of these mixtures was compared to the fluorescence intensity of the same fluorophore standards minus test compounds. Each microplate contained positive control columns (DMSO plus fixed concentration of a single fluorophore), negative control columns (DMSO), and experimental wells (test compounds plus fixed concentration of a single fluorophore). […] Final concentration of DMSO was constant at 2.0% (v/v). […] All measurements were performed in ALARM NMR buffer (25 mM sodium phosphate, pH 7.0) at 25 °C. Aliquots of 20 μL buffer were dispensed into microplate wells via ThermoFisher Multidrop dispenser. Microplates were shaken for 1 min on a plate shaker, centrifuged briefly for 1 min at 1000×g, then allowed to incubate at RT for 10 min before measuring fluorescence intensity on a SpectraMax M3 plate reader under reduced lighting. Instrument settings for each fluorophore were unchanged from the aforementioned autofluorescence studies.
# p300/CBP = details: cited from earlier work
# HEK293T and MCF7 cells [5] = assay: Cell proliferation by cell confluence; assay type: cell-based; details: 10 and 30 μM compound, 24 h
# Procedure: (§2) Cells were cultured in DMEM supplemented with 10% fetal bovine serum (Winsent), penicillin (100 U mL^−1), and streptomycin (100 µg mL^−1). Compounds dissolved in DMSO or matching DMSO-only controls were added to cells for indicated times. Compound effects in cells were determined as described[67] and are outlined below.
# as §1
# [6] = test system: H3K27ac levels in HEK293T and MCF7 cells; assay: Cellular H3K27ac western blot; assay type: cell-based; details: 10 and 30 μM compound
# Procedure: as §2
# For western blot analyses, cells were lysed in lysis buffer (20 mM Tris–HCl, pH 8, 150 mM NaCl, 1 mM EDTA, 10 mM MgCl2, 0.5% Triton X-100 (v/v), 12.5 U mL^−1 benzonase (Sigma), complete EDTA-free protease inhibitor cocktail (Roche)). After 3 min incubation at RT, SDS was added to final 1% concentration (w/v). Total cell lysates were resolved in 4–12% Bis-Tris protein gels (Invitrogen) with MOPS buffer (Invitrogen) and transferred for 1.5 h (80 V) onto PVDF membrane (Millipore) in tris-glycine transfer buffer containing 20% methanol and 0.05% SDS. Blots were blocked for 1 h in blocking buffer (5% milk in 0.1% Tween 20/PBS) and incubated with respective primary antibodies: H3K27ac (1:1000, CST #8173), H3 (1:1000, Abcam #10799), p300 (1:2000, Bethyl #A300-358A), CBP (1:1000, Bethyl #A300-362A), actin (1:3000, Abcam #3280), α-tubulin (1:1000, 12G10 DHSB), and α-tubulin-K40ac (1:2000, Abcam #179484) in blocking buffer overnight at 4 °C. After five washes with 0.1% Tween 20/PBS, the blots were incubated with goat anti-rabbit IgG (IRDye 800-conjugated, LiCor #926-32211) and donkey anti-mouse IgG (IRDye 680-conjugated, LiCor #926-68072) antibodies (1:5000) in Odyssey Blocking Buffer (LiCor) for 1 h at RT and washed with 0.1% Tween 20/PBS. The signal was read on an Odyssey scanner (LiCor) at 800 and 700 nm. Representative uncropped images with molecular weight markers are provided (Supplementary Figs. 9, 12, 13).
smiles,measurement,setting,value
"O=[N+]([O-])c1cc(Br)c2nsnc2c1Sc1ncnc2[nH]cnc12 [Compound 26, JMC2015-2a]",caspase 3/7 activity,[1],induce; also recorded: increased
same,membrane permeability,HEK293T and MCF7 cells [2],increased
"CCCCCCCCCCCCCCC=C(C(=O)OCC)C(=O)OCC [Compound 19, LoCAM]","ALARM NMR, (-) DTT",human La antigen; 0 mM DTT,Negative
same,"ALARM NMR, (+) DTT",human La antigen; DTT present,Negative
same,ALARM NMR interpretation,human La antigen; with and without DTT,Inert as tested
same,AmpC counter-screen result,AmpC β-lactamase; detergent-sensitive modulation,likely aggregators
same,AmpC aggregation counter-screen,AmpC β-lactamase,"Detergent-sensitive (Aggregators were defined as compounds with significant detergent-dependent changes in AmpC activity (t-test, adjusted P-value <0.05; mean differences greater than 30%))"
same,Absorption max (nm),Absorbance spectra,Nominal
same,Absorbance counter-screen,Absorbance spectra; 300-750 nm,Negative
same,Fluorescence counter-screen,[3],Negative
same,Quenching counter-screen,[4],Negative
same,"% inhibition, p300/CBP","p300/CBP; @ 50 µM, ref 23 (Supplementary References)",74%
"O=C(O)CCSc1cc(NS(=O)(=O)c2ccc(Br)cc2)c2ccccc2c1O [Compound 24, JMC2015-6a]",caspase 3/7 activity,[1],induce; also recorded: increased
same,cytotoxicity by membrane integrity studies,"HEK293T and MCF7 cells [2]; 30 µM compound, MCF7 cells",cytotoxic
same,membrane permeability,HEK293T and MCF7 cells [2],increased
CC(=O)c1c(O)c(C)c(O)c(Cc2c(O)c3c(c(C(=O)/C=C/c4ccccc4)c2O)OC(C)(C)C=C3)c1O [Rottlerin],effect on cell proliferation (cell confluence),HEK293T and MCF7 cells [5],cytotoxic effects
same,effect on cell proliferation (cell confluence),HEK293T and MCF7 cells [5]; listed as rottlerin,anti-proliferative effects
same,cellular H3K27ac levels,[6],decreased H3K27ac levels
"c1cc(SSc2ccns2)sn1 [Compound 2, NU-9056]",AmpC aggregation counter-screen,AmpC β-lactamase,Detergent-insensitive
same,IC50,"p300/CBP; original report, 27 (Supplementary References)",59 µM
O=C1C(Cl)=C(NCCN2CCOCC2)C(=O)c2ncccc21 [NSC-663284],cellular H3K27ac levels,[6],decreased H3K27ac levels
same,caspase 3/7 activity,[1],induce; also recorded: increased
same,membrane permeability,HEK293T and MCF7 cells [2],increased
